US7087620B2, “Liquid pharmaceutical formulations containing 3,7-diazabicyclo[3,3,1]nonane compounds and methods of treatment relating to anti-arrhythmic events” (Solvay Pharmaceuticals GmbH, priority 2002, dated 2006)

System: subjects with recent onset atrial fibrillation or flutter
Experiment: Phase III study of intravenous tedisamil sesquifumarate in subjects with recent onset atrial fibrillation or flutter
Assay type: in vivo, human
Conditions: second study (Phase III)
Experimental: This second clinical study was a Multi-Center, Double-Blind, Randomized, Placebo-Controlled, Parallel Design Study to evaluate the Efficacy and Safety of Intravenous Tedisamil Sesquifumarate in the Rapid Conversion to Normal Sinus Rhythm in Subjects with Recent Onset Atrial Fibrillation or Flutter.
The active ingredient used was tedisamil sesqifumarate. […] Study duration: Screening: up to 48 hours; treatment (in-patient): single 30-minute infusion; safety follow up: 24 hours (in-patient) with continuous telemetry and 28 day safety follow up. […]

`C1CCC2(C1)C1CN(CC3CC3)CC2CN(CC2CC2)C1` [Tedisamil, N,N′-dicyclopropylmethyl-9,9-tetramethylene-3,7-diazabicyclo[3,3,1]nonane] was tested, and the “Gender difference in conversion rate” value was “male patients show a higher conversion rate compared to women”.
